Compared with `COc1ccc(C(=O)O)cc1S(=O)(=O)NC(C)C`, `Cc1cc(C)c(S(N)(=O)=O)cc1C(=O)O` is higher in melting point: 194 to 197 °C for the first, 252 to 254 °C for the second.

First: COc1cc(CN)ccc1OC(C)(C)C
Second: COc1ccc(CCl)cc1C#N
The melting point of the first is lower: 52 to 54 °C for the first, 99 to 101 °C for the second.

First: Cn1cc([N+](=O)[O-])ccc1=O
Second: CC1(c2ccccc2)NC(=O)N(N)C1=O (configuration not stated)
The melting point of the first is higher: 172 to 174 °C for the first, 169 to 171 °C for the second.

Compared with `NS(=O)(=O)c1ccc(CC(=O)O)s1`, `CS(=O)(=O)NCc1ccc(C(=O)O)o1` is higher in melting point: 128 to 130 °C for the first, 139 to 141 °C for the second.

First: O=Cc1c(O)cccc1Cl
Second: CC(=O)C(C#N)c1c(F)cccc1Cl (configuration not stated)
The melting point of the first is lower: 52 to 54 °C for the first, 100 to 102 °C for the second.

First: O=C(O)c1ccc(-c2ccc(OC(F)F)cc2)s1
Second: O=C(O)c1csc(-c2ccc(O)cc2)n1
The melting point of the first is lower: 209 to 211 °C for the first, 214 to 216 °C for the second.

Compared with `CCC(C)NC(=O)c1ccc(N)cc1` (configuration not stated), `CC(C)CCNS(=O)(=O)c1ccc(N)cc1` is higher in melting point: 101 to 104 °C for the first, 119 to 121 °C for the second.

First: O=C(O)C(=Cc1ccco1)NC(=O)c1ccccc1
Second: O=C(O)CC(Br)C(=O)c1ccccc1 (configuration not stated)
The melting point of the first is higher: 209 to 211 °C for the first, 128 to 130 °C for the second.

First: Cc1cc(Cl)n2ncnc2c1
Second: O=C(O)c1n[nH]c2ccc(Cl)cc12
The melting point of the first is lower: 93 to 95 °C for the first, 271 to 273 °C for the second.

Compared with `CC(C)(C)OC(=O)Nc1ccsc1Br`, `CC(C)(C)c1ccc(OCCCC(=O)O)cc1` is lower in melting point: 69 to 71 °C for the first, 53 to 55 °C for the second.

First: Nc1cccc(CN2CCC(CO)CC2)c1
Second: CCc1cccc(NC(N)=S)c1
The melting point of the first is higher: 89 to 91 °C for the first, 85 to 87 °C for the second.

Compared with `CC(C)c1ccc2cc(C(=O)O)[nH]c2c1`, `CC(C)c1cc(C(=O)O)cc(O)n1` is higher in melting point: 132 to 134 °C for the first, 309 to 311 °C for the second.

First: CS(=O)(=O)c1nc(C(=O)O)c2ccccn12
Second: CCOc1cn(-c2ccccc2)nc1C(=O)O
The melting point of the first is higher: 259 to 261 °C for the first, 142 to 144 °C for the second.

First: NNC(=O)CSc1ccccc1F
Second: CCC(Oc1ccccc1F)C(=O)O (configuration not stated)
The melting point of the first is higher: 131 to 133 °C for the first, 63 to 65 °C for the second.

Compared with `O=C(O)Cc1cccc(OCc2ccccc2Cl)c1`, `O=C(O)c1cnc(Oc2ccccc2)cn1` is higher in melting point: 64 to 66 °C for the first, 134 to 136 °C for the second.

Compared with `c1ccc(CNc2nccs2)cc1`, `NCCS(=O)(=O)Cc1ccccc1` is lower in melting point: 127 to 129 °C for the first, 76 to 78 °C for the second.

First: NC(=S)Nc1cc(F)cc(F)c1
Second: O=C(O)CSc1ccc(F)c(F)c1
The melting point of the first is higher: 149 to 151 °C for the first, 62 to 64 °C for the second.

Compared with `Brc1cc[nH]n1`, `O=c1[nH]ccnc1Cl` is higher in melting point: 74 to 76 °C for the first, 159 to 161 °C for the second.

Compared with `O=C1CSc2ccc(C(=O)O)cc2N1`, `O=C(O)c1ccc(N2CCCCC2=O)cc1` is lower in melting point: 251 to 253 °C for the first, 213 to 215 °C for the second.

First: O=C1NCCN2CCCCC12 (configuration not stated)
Second: O=C(Nc1ccc(Cl)cn1)C1CCCNC1 (configuration not stated)
The melting point of the first is lower: 134 to 136 °C for the first, 156 to 158 °C for the second.

First: O=[N+]([O-])c1cc(S(=O)(=O)Cl)c(F)cc1F
Second: O=c1[nH]c2cc(Br)cc(Cl)c2o1
The melting point of the first is lower: 46 to 48 °C for the first, 189 to 191 °C for the second.

Compared with `Cc1ccc(NC(=O)CC#N)cc1`, `O=C(CCl)Nc1ccccc1C(=O)O` is lower in melting point: 188 to 190 °C for the first, 185 to 187 °C for the second.

Compared with `O=C(O)c1nc(-c2ccccc2)oc1C1CC1`, `O=C(O)c1c[nH]nc1-c1ccccc1Cl` is higher in melting point: 198 to 200 °C for the first, 255 to 257 °C for the second.

First: Cc1ccccc1-c1csc(N)n1
Second: NC1=NC(=O)c2ccccc21
The melting point of the first is lower: 80 to 82 °C for the first, 208 to 210 °C for the second.

First: Nc1nnc(SCC2COc3ccccc3O2)s1 (configuration not stated)
Second: Nc1ccccc1OCC(F)(F)F
The melting point of the first is higher: 161 to 163 °C for the first, 49 to 51 °C for the second.

Compared with `COc1cc(NC(=O)CCl)cc(OC)c1OC`, `COC(=O)c1oc(CO)cc1C` is lower in melting point: 104 to 106 °C for the first, 87 to 89 °C for the second.

First: COC(=O)c1cc(-c2cccc(C(F)(F)F)c2)ccc1N
Second: O=C(O)CNS(=O)(=O)c1cccc(C(F)(F)F)c1
The melting point of the first is lower: 72 to 74 °C for the first, 80 to 82 °C for the second.

First: CN(C)S(=O)(=O)c1ccc(Cl)c(C(=O)NCCCCCC(=O)O)c1
Second: O=C1c2ccccc2C(=O)N1CCCCCCO
The melting point of the first is higher: 84 to 86 °C for the first, 57 to 59 °C for the second.

First: NC(Cc1ccc(Cl)cc1)=NO
Second: COc1ccc(C2CC2C(=O)O)cc1 (configuration not stated)
The melting point of the first is lower: 96 to 98 °C for the first, 109 to 111 °C for the second.

First: O=C(O)C1SCCc2sccc21 (configuration not stated)
Second: CC1CCc2sc(C(=O)O)cc2C1 (configuration not stated)
The melting point of the first is higher: 148 to 150 °C for the first, 132 to 136 °C for the second.

Compared with `O=C(CN1CCCC(C(=O)O)C1)Nc1ccccc1` (configuration not stated), `Fc1ccc(NC(=NC2CC2)c2ccccc2)cc1` is lower in melting point: 100 to 102 °C for the first, 92 to 94 °C for the second.

Compared with `O=C(O)/C=C/c1ccc(-n2ccnc2)cc1`, `c1cc(-n2ccnc2)ccn1` is lower in melting point: 300 to 302 °C for the first, 104 to 106 °C for the second.

First: Fc1ccc(-c2cncc(Cl)n2)cc1
Second: Nc1ccc(F)cc1-n1cccc1
The melting point of the first is higher: 95 to 97 °C for the first, 84 to 86 °C for the second.

Compared with `N#CC1(CS(N)(=O)=O)CC1`, `CC(C)(C)c1nc(C#N)c(NN)o1` is higher in melting point: 109 to 111 °C for the first, 164 to 166 °C for the second.

First: CCOC(=O)c1nc(C)n[nH]1
Second: CCCN1CCc2c(sc(N)c2C(=O)OCC)C1
The melting point of the first is higher: 184 to 186 °C for the first, 69 to 73 °C for the second.

Compared with `Cc1nn(CC(C)C)c(Cl)c1C(=O)O`, `CC(C)Cn1c(=O)n(C)c(=O)c2cc(C(=O)O)cnc21` is higher in melting point: 128 to 130 °C for the first, 219 to 221 °C for the second.
